# Measured values reported in US9856279B2 (AGIOS PHARMACEUTICALS, INC, priority 2011, dated 2018).
# pIC50: −log10 of the molar value.
# What was measured:
# IDH1 R132H = IDH1 R132H (Homo sapiens, UniProt O75874, R132H); assay: Assay for IDH1 R132H inhibitors (NADPH/aKG, resazurin detection); assay type: biochemical; details: enzyme assay of Example 12; read-out: IDH1R132H IC50
# Procedure, shortened: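 Read-out is resorufin fluorescence (Ex544/Em590) 5 min after adding a 30 μM resazurin detection mix. Before that, mutant enzyme (0.2 μg/ml in its mix) ran 50 min at room temperature with compound, 8 uM NADPH and 2 mM aKG (mix levels) in Tris pH 7.5 with NaCl, MgCl2, BSA.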
# U87MG cells = assay: Cellular assay for IDH1m inhibitors: inhibition of 2-HG production (LC-MS, 48 hours) in U87MG cells; assay type: cell-based; details: Homo sapiens, U-87 MG, inhibition of 2-HG production, U87R132H cells; read-out: U87R132H IC50
# Procedure: (§1) Cells (e.g., HT1080 or U87MG) and are grown in T125 flasks in DMEM containing 10% FBS, 1× penicillin/streptomycin and 500 ug/mL G418. They are harvested by trypsin and seeded into 96 well white bottom plates at a density of 5000 cell/well in 100 ul/well in DMEM with 10% FBS. No cells are plates in columns 1 and 12. Cells are incubated overnight at 37° C. in 5% CO2. The next day compounds are made up at 2× concentration and 100 ul are added to each cell well. The final concentration of DMSO is 0.2% and the DMSO control wells are plated in row G. The plates are then placed in the incubator for 48 hours. At 48 hours, 100 μl of media is removed from each well and analyzed by LC-MS for 2-HG concentrations. The cell plate is placed back in the incubator for another 24 hours. At 72 hours post compound addition, 10 mL/plate of Promega Cell Titer Glo reagent is thawed and mixed. The cell plate is removed from the incubator and allowed to equilibrate to room temperature. Then 100 ul of reagent is added to each well of media. The cell plate is then placed on an orbital shaker for 10 minutes and then allowed to sit at room temperature for 20 minutes. The plate is then read for luminescence with an integration time of 500 ms.
# (§2) The IC50 for inhibition of 2-HG production (concentration of test compound to reduce 2HG production by 50% compared to control) in these two cell lines for various compounds of formula I is set forth in Table 4 above.
# HT1080 cells = assay: Cellular assay for IDH1m inhibitors: inhibition of 2-HG production (LC-MS, 48 hours) in HT1080 cells; assay type: cell-based; details: Homo sapiens, HT-1080; inhibition of 2-HG production, HT1080 cells; read-out: HT1080 IC50
# Procedure: as §1, §2
# Sequence of IDH1 R132H (O75874 whole entry R132H): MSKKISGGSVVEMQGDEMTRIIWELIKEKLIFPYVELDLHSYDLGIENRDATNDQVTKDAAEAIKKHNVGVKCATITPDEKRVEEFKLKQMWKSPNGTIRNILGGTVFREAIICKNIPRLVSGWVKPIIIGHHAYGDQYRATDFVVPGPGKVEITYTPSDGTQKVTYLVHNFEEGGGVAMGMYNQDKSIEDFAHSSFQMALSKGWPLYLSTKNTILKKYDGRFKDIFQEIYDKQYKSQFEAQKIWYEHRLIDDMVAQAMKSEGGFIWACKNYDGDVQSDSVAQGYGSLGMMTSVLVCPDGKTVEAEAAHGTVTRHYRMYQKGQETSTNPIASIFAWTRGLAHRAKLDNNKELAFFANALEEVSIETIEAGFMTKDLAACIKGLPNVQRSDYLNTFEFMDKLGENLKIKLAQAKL
SMILES,pIC50 (IDH1 R132H),pIC50 (U87MG cells),pIC50 (HT1080 cells)
"CCO[C@H]1C[C@@H]1C(=O)N1CCN(c2nc(C3CC3)c(-c3cccc4cnccc34)cc2C#N)C[C@H]1C1CC1 [Compound 518, 6-cyclopropyl-2-((R)-3-cyclopropyl-4-((1S,2S)-2-ethoxycyclopropanecarbonyl)piperazin-1-yl)-5-(isoquinolin-5-yl)nicotinonitrile]",> 6.30,> 6.30,–
"C=C(C)c1cc(-c2cc(C#N)c(N3CCN(C(=O)C4CC4)[C@H](C4CC4)C3)nc2C2CC2)ccn1 [Compound 544, (R)-6-(4-(cyclopropanecarbonyl)-3-cyclopropylpiperazin-1-yl)-2-cyclopropyl-2′-(prop-1-en-2-yl)-3,4′-bipyridine-5-carbonitrile]",> 6.30,–,6.00 to 6.30
"COCCC(=O)N1CCN(c2nc(C3CC3)c(-c3ccc4nccnc4c3)cc2C#N)C[C@H]1C [Compound 445, (R)-6-cyclopropyl-2-(4-(3-methoxypropanoyl)-3-methylpiperazin-1-yl)-5-(quinoxalin-6-yl)nicotinonitrile]",> 6.30,–,5.00 to 6.00
"N#Cc1cc(-c2cccc3cnc(Cl)cc23)c(C2CC2)nc1N1CCN(C(=O)C2CC2)[C@H](C2CC2)C1 [Compound 555, (R)-5-(3-chloroisoquinolin-5-yl)-2-(4-(cyclopropanecarbonyl)-3-cyclopropylpiperazin-1-yl)-6-cyclopropylnicotinonitrile]",> 6.30,–,6.00 to 6.30
"C=CC(=O)N1CCC=C(c2cc(C#N)c(N3CCN(C(=O)C4CC4)[C@H](C)C3)nc2C2CC2)C1 [Compound 575, (R)-5-(1-acryloyl-1,2,5,6-tetrahydropyridin-3-yl)-2-(4-(cyclopropanecarbonyl)-3-methylpiperazin-1-yl)-6-cyclopropylnicotinonitrile]",> 6.30,–,> 6.30
"C=CC(=O)N1CCCC(c2cc(C#N)c(N3CCN(C(=O)C4CC4)[C@H](C)C3)nc2C2CC2)C1 (stereo partly drawn) [Compound 576, 5-(1-acryloylpiperidin-3-yl)-2-((R)-4-(cyclopropanecarbonyl)-3-methylpiperazin-1-yl)-6-cyclopropylnicotinonitrile]",6.00 to 6.30,–,> 6.30
"C=Cc1ccc2c(-c3cc(C#N)c(N4CCN(C(=O)CCOC)[C@H](C5CC5)C4)nc3C3CC3)cccc2n1 [Compound 570, (R)-6-cyclopropyl-2-(3-cyclopropyl-4-(3-methoxypropanoyl)piperazin-1-yl)-5-(2-vinylquinolin-5-yl)nicotinonitrile]",> 6.30,–,> 6.30
"N#Cc1cc(-c2cccc3c(O)nccc23)c(C2CC2)nc1N1CCN(C(=O)C2CC2)[C@H](C2CC2)C1 [Compound 566, (R)-2-(4-(cyclopropanecarbonyl)-3-cyclopropylpiperazin-1-yl)-6-cyclopropyl-5-(1-hydroxyisoquinolin-5-yl)nicotinonitrile]",> 6.30,–,6.00 to 6.30
"N#Cc1cc(-c2cccc3c[n+]([O-])ccc23)c(C2CC2)nc1N1CCN(C(=O)C2CC2)[C@H](C2CC2)C1 [Compound 439, (R)-5-(5-cyano-6-(4-(cyclopropanecarbonyl)-3-cyclopropylpiperazin-1-yl)-2-cyclopropylpyridin-3-yl)isoquinoline 2-oxide]",> 6.30,–,> 6.30
"C=Cc1cncc(-c2cc(C#N)c(N3CCN(C(=O)C4CC4)[C@H](C4CC4)C3)nc2C2CC2)n1 [Compound 515, (R)-2-(4-(cyclopropanecarbonyl)-3-cyclopropylpiperazin-1-yl)-6-cyclopropyl-5-(6-vinylpyrazin-2-yl)nicotinonitrile]",6.00 to 6.30,–,5.00 to 6.00

# Results, then the compound that gave them:
pIC50 (IDH1 R132H),pIC50 (U87MG cells),pIC50 (HT1080 cells),SMILES
> 6.30,> 6.30,–,"C=Cc1cc(-c2cc(C#N)c(N3CCN(C(=O)COC)[C@H](C4CC4)C3)nc2C2CC2)nc(N)n1 [Compound 759, (R)-5-(2-amino-6-vinylpyrimidin-4-yl)-6-cyclopropyl-2-(3-cyclopropyl-4-(2-methoxyacetyl)piperazin-1-yl)nicotinonitrile]"
> 6.30,–,> 6.30,"C=Cc1cc(-c2cc(C#N)c(N3CCN(C(=O)C4(O)CC4)[C@H](C)C3)nc2C2CC2)ccn1 [Compound 664, (R)-2-cyclopropyl-6-(4-(1-hydroxycyclopropanecarbonyl)-3-methylpiperazin-1-yl)-2′-vinyl-3,4′-bipyridine-5-carbonitrile]"
> 6.30,–,> 6.30,"C=Cc1cnc2c(/C=C/c3cnc4c(-c5cc(C#N)c(N6CCN(C(=O)CCOC)[C@H](C)C6)nc5C5CC5)cccc4n3)cccc2n1 [Compound 604, (R,E)-6-cyclopropyl-2-(4-(3-methoxypropanoyl)-3-methylpiperazin-1-yl)-5-(2-(2-(2-vinylquinoxalin-5-yl)vinyl)quinoxalin-5-yl)nicotinonitrile]"
6.00 to 6.30,–,6.00 to 6.30,"C=CC(=O)N1CCOC(c2cc(C#N)c(N3CCN(C(=O)C4CC4)[C@H](C)C3)nc2C2CC2)C1 (stereo partly drawn) [Compound 600, 5-(4-acryloylmorpholin-2-yl)-2-((R)-4-(cyclopropanecarbonyl)-3-methylpiperazin-1-yl)-6-cyclopropylnicotinonitrile]"
> 6.30,–,> 6.30,"C=C(F)c1cc(-c2cc(C#N)c(N3CCN(C(=O)CCOC)[C@H](C)C3)nc2C2CC2)ncn1 [Compound 602, (R)-6-cyclopropyl-5-(6-(1-fluorovinyl)pyrimidin-4-yl)-2-(4-(3-methoxypropanoyl)-3-methylpiperazin-1-yl)nicotinonitrile]"
> 6.30,–,5.00 to 6.00,"C[C@@H]1CN(c2nc(C3CC3)c(Nc3ccc(C#N)nc3)cc2C#N)CCN1C(=O)CCO [Compound 582, (R)-5-((5-cyano-2-cyclopropyl-6-(4-(3-hydroxypropanoyl)-3-methylpiperazin-1-yl)pyridin-3-yl)amino)picolinonitrile]"
> 6.30,–,> 6.30,"C=Cc1cc(N(C(C)=O)c2cc(C#N)c(N3CCN(C(=O)CCOC)[C@H](C)C3)nc2C2CC2)ccn1 [Compound 662, (R)—N-(5-cyano-2-cyclopropyl-6-(4-(3-methoxypropanoyl)-3-methylpiperazin-1-yl)pyridin-3-yl)-N-(2-vinylpyridin-4-yl)acetamide]"
> 6.30,–,> 6.30,"C#CC(=O)N1CCC=C(c2cc(C#N)c(N3CCN(C(=O)C4CC4)[C@H](C)C3)nc2C2CC2)C1 [Compound 594, (R)-2-(4-(cyclopropanecarbonyl)-3-methylpiperazin-1-yl)-6-cyclopropyl-5-(1-propioloyl-1,2,5,6-tetrahydropyridin-3-yl)nicotinonitrile]"
> 6.30,–,> 6.30,"C=Cc1cc(-c2c(C3CC3)nc(N3CCN(C(=O)C[C@H]4CCO4)[C@H](C4CC4)C3)c(C#N)c2CC)ccn1 [Compound 823, 2-cyclopropyl-6-((R)-3-cyclopropyl-4-(2-((R)-oxetan-2-yl)acetyl)piperazin-1-yl)-4-ethyl-2′-vinyl-[3,4′-bipyridine]-5-carbonitrile]"
> 6.30,–,> 6.30,"C=Cc1nc(-c2cc(C#N)c(N3CCN(C(=O)C4CC4)[C@H](C4CC4)C3)nc2C2CC2)c2ccccc2n1 [Compound 669, (R)-2-(4-(cyclopropanecarbonyl)-3-cyclopropylpiperazin-1-yl)-6-cyclopropyl-5-(2-vinylquinazolin-4-yl)nicotinonitrile]"
–,> 6.30,–,C=Cc1cc(-c2cc(C#N)c(N3CCN(C(=O)CCO)[C@H](C4CC4)C3)nc2C2CC2)c2cccnc2n1 [Compound 691]
